Assay results as given in EP0037781A1, “Phenyl alcoxy propanol amines, their preparation and their use as medicines” (PIERRE FABRE S.A., priority 1980, dated 1981).
Converted amounts (≈) assume the structure as drawn. Where a name gives a salt, the structure may show the parent alone.

Assay: Solubility (Solubilités) in water and dimethyl sulfoxide
Format: physicochemical
Conditions: for solubility in dimethyl sulfoxide: diméthylsulfoxyde; for solubility: water, eau, read-out: Solubilités : Soluble dans l'eau

solubility in dimethyl sulfoxide | solubility | SMILES
15% | 100 mg/mL | Cc1cccc(COCC(O)CNC(C)C)c1 (stereo not shown) [Exemple 1, isopropylamino-3, m-tolyl méthoxy-1 propanol-2 fumarate]
10% | 25 mg/mL (≈ 99.5 mM) | Cc1cccc(COCC(O)CNC(C)(C)C)c1 (stereo not shown) [Exemple 2, tertiobutvlamino-3 métatol lméthoxy-1 propanol-2 maléate]
15% | 100 mg/mL | COc1ccccc1COCC(O)CNC(C)C (stereo not shown) [Exemple 3, isopropylamino-3 (orthométhoxy benzyloxy) 1 propanol-2 fumarate]
15% | 100 mg/mL (≈ 374 mM) | COc1ccccc1COCC(O)CNC(C)(C)C (stereo not shown) [Exemple 4, tertiobutylamino-3 (orthométhoxy benzyloxy)-1 propanol-2 maléate]
12% | 100 mg/mL (≈ 374 mM) | COc1cccc(COCC(O)CNC(C)(C)C)c1 (stereo not shown) [Exemple 5, tertiobutylamino-3 (métaméthoxybenzyloxy)-1 propanol-2 maléate]
20% | 100 mg/mL (≈ 374 mM) | COc1ccc(COCC(O)CNC(C)(C)C)cc1 (stereo not shown) [Exemple 6, tertiobutylamino-3 (paraméthoxy benzyloxy)-1 propanol-2 maléate]
20% | 2 mg/mL (≈ 5.82 mM) | CC(C)(C)NCC(O)COCc1cccc(OCc2ccccc2)c1 (stereo not shown) [Exemple 7, tertiobutylamino-3 métabenzyloxy-benzyloxy-1 propanol-2 maléate]
8% | 14 mg/mL | CC(C)NCC(O)COCc1cccc2ccccc12 (stereo not drawn) [Exemple 8, isopropylamino-3 (alpha-naphtyl méthoxy)-1 propanol-2 fumarate]
15% | 100 mg/mL | CC(C)(C)NCC(O)COCc1cccc2ccccc12 (stereo not drawn) [Exemple 9, tertiobutylamino-3 (alpha-naphtyl méthoxy)-1 propanol-2 fumarate]
12% | 100 mg/mL | CC(C)NCC(O)COCCCc1ccccc1 (stereo not shown) [Exemple 10, isopropylamino-3(phényl-3 propoxy)-1 pro^panol-2 fumarate]
15% | 100 mg/mL | CC(C)(C)NCC(O)COCCCc1ccccc1 (stereo not shown) [Exemple 11, tertiobutylamino-3 phényl-3 propoxy)-1 propanol-2 fumarate]
15% | 10 mg/mL (≈ 38 mM) | CC(C)(C)NCC(O)COC/C=C/c1ccccc1 (stereo not shown) [Exemple 12, tertiobutylamino-3 (phényl-3 propène-2 yl-1) oxy-1 ^propanol-2 maléate]
10% | 100 mg/mL (≈ 380 mM) | CC(C)(C)NCC(O)COC1Cc2ccccc2C1 (stereo not shown) [Exemple 14, tertiobutylamino-3 (indanyl-2 oxy)-1 propanol-2 maléate]
– | 30 mg/mL | CC(C)NCC(O)COC1CCCc2ccccc21 (stereo not shown) [Exemple 15, isopropylamino-3 (tétrahydro 1,2,3,4 naphtyloxy-1)-1 propanol-2 fumarate]

SMILES | solubility in dimethyl sulfoxide | solubility
CC(C)(C)NCC(O)COC1CCCc2ccccc21 (stereo not shown) [Exemple 16, tertiobutylamino-3 (tétrahydro 1,2,3,4 naphtoxy-1)-1 pro^panol-2 maléate] | – | 20 mg/mL (≈ 72.1 mM)
